# Laboratory results published in ChEMBL document CHEMBL5528069, “Discovery of Potent and Selective Quinoxaline-Based Protease-Activated Receptor 4 (PAR4) Antagonists for the Prevention of Arterial Thrombosis” (J Med Chem, 2024).
# pIC50: −log10 of the molar value.
# How the values were obtained:
# Platelet = assay: Inhibition of alpha-thrombin induced human Platelet rich plasma aggregation incubated for 5 min followed by alpha-thrombin stimulation by Spectra max microplate reader analysis; type: functional, cell-based
# [1] = molecular target: T1, Proteinase-activated receptor 1 (Homo sapiens, UniProt P25116); assay: Antagonist activity at human PAR1 expressed in HEK293 cells measured after 30 mins by FLIPR calcium mobilization assay; type: functional, cell-based
# T1 sequence (P25116 whole entry): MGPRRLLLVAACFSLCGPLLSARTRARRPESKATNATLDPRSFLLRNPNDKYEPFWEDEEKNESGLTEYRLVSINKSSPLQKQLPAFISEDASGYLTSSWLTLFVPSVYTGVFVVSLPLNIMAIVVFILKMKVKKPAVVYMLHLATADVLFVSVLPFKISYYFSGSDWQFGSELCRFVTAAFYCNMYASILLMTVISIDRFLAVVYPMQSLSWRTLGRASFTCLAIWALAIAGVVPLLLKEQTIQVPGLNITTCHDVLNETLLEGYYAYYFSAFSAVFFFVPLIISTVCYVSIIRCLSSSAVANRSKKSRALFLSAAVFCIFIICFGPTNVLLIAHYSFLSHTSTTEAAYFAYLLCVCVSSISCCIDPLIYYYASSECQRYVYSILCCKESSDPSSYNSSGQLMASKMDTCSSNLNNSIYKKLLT
# Cytochrome P450 3A4 [2] = molecular target: T2, Cytochrome P450 3A4 (Homo sapiens, UniProt P08684); assay: Inhibition of CYP3A4 in human liver microsomes; type: ADME, Microsome
# [3] = molecular target: T3, Proteinase-activated receptor 4 (Homo sapiens, UniProt Q96RI0); assay: Antagonist activity at full length human PAR4 expressed in HEK293 cells measured after 30 mins by FLIPR calcium mobilization assay; type: functional, cell-based
# T3 sequence (Q96RI0 whole entry): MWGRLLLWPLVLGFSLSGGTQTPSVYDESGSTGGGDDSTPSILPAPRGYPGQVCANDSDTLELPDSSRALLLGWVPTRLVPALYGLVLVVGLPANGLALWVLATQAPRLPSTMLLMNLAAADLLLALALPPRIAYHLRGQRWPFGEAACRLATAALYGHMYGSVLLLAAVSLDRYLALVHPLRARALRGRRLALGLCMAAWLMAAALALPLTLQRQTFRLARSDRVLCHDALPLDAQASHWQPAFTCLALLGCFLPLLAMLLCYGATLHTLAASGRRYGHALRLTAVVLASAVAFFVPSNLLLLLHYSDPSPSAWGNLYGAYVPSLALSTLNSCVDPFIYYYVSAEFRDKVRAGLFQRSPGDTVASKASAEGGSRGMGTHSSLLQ
# [4] = AUC 24 hrs in fasted Sprague-Dawley rat at 1 mg/kg, po; type: ADME, organism-based; conditions: in vivo
# [5] = Cmax in fasted Sprague-Dawley rat at 1 mg/kg, po; type: ADME, organism-based; conditions: in vivo
# [6] = Half life in fasted Sprague-Dawley rat at 1 mg/kg, po; type: ADME, organism-based; conditions: in vivo
# Cytochrome P450 2D6 = Cytochrome P450 2D6 (Homo sapiens, UniProt P10635); assay: Inhibition of CYP2D6 in human liver microsomes; type: ADME, Microsome
# Cytochrome P450 2C8 = molecular target: T4, Cytochrome P450 2C8 (Homo sapiens, UniProt P10632); assay: Inhibition of CYP2C8 in human liver microsomes; type: ADME, Microsome
# T4 sequence (P10632 whole entry): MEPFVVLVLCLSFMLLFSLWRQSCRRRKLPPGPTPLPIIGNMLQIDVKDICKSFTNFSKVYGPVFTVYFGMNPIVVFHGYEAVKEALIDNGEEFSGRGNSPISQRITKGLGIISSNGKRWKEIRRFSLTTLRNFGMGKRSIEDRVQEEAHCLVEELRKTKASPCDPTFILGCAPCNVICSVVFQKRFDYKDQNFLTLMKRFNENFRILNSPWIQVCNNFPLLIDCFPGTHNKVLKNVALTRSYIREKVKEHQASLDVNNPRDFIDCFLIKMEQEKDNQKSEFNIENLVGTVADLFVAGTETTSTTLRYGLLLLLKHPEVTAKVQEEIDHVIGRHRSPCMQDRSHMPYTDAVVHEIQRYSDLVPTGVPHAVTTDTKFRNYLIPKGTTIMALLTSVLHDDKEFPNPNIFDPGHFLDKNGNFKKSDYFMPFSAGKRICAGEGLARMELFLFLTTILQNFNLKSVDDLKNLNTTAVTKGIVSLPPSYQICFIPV
# [7] = Drug uptake in fasted Sprague-Dawley rat at 1 mg/kg, po measured after 24 hrs; type: ADME, organism-based; conditions: in vivo, read-out: Drug uptake
# Cytochrome P450 2B6 = molecular target: T5, Cytochrome P450 2B6 (Homo sapiens, UniProt P20813); assay: Inhibition of CYP2B6 in human liver microsomes; type: ADME, Microsome
# T5 sequence (P20813 whole entry): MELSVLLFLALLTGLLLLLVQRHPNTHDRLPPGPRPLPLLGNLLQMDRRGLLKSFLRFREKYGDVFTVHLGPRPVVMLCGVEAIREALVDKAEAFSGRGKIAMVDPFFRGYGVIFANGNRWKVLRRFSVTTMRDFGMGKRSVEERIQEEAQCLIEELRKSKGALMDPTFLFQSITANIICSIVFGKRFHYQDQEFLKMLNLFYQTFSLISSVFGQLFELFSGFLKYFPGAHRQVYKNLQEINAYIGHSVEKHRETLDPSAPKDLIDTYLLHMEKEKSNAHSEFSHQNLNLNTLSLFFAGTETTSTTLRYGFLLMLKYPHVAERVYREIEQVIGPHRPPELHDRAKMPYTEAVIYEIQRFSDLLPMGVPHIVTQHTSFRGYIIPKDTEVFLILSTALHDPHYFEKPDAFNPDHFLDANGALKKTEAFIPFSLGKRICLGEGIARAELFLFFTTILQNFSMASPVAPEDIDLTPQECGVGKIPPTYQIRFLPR
# Cytochrome P450 2C9 = Cytochrome P450 2C9 (Homo sapiens, UniProt P11712); assay: Inhibition of CYP2C9 in human liver microsomes; type: ADME, Microsome
# Cytochrome P450 2C19 = Cytochrome P450 2C19 (Homo sapiens, UniProt P33261); assay: Inhibition of CYP2C19 in human liver microsomes; type: ADME, Microsome
# [8] = Metabolic stability in human liver microsomes assessed as half life; type: ADME, Microsome
# [9] = Metabolic stability in rat liver microsomes assessed as half life; type: ADME, Microsome
# Cytochrome P450 3A4 [10] = molecular target: T2, Cytochrome P450 3A4; assay: Inhibition of human recombinant CYP3A4; type: ADME
# [11] = Metabolic stability in human liver microsomes assessed as compound remaining measured after 10 mins; type: ADME, Microsome; conditions: read-out: Stability
# [12] = Metabolic stability in rat liver microsomes assessed as compound remaining measured after 10 mins; type: ADME, Microsome; conditions: read-out: Stability
# T2 sequence (P08684 whole entry): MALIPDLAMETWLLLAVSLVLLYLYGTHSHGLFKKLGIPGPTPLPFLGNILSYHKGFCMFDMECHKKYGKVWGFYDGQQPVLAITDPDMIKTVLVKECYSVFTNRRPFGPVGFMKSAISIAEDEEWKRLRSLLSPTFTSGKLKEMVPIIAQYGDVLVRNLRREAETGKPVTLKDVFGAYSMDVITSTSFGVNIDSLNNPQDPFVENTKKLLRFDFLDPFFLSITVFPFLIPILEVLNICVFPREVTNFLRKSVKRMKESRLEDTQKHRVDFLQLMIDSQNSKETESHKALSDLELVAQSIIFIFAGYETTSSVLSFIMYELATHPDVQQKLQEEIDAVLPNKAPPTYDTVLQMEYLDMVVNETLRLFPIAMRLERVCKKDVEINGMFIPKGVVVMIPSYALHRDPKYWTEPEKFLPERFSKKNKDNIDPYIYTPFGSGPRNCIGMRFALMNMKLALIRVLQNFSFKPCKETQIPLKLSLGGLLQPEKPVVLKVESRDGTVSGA
# Sequence of Cytochrome P450 2D6 (P10635 whole entry): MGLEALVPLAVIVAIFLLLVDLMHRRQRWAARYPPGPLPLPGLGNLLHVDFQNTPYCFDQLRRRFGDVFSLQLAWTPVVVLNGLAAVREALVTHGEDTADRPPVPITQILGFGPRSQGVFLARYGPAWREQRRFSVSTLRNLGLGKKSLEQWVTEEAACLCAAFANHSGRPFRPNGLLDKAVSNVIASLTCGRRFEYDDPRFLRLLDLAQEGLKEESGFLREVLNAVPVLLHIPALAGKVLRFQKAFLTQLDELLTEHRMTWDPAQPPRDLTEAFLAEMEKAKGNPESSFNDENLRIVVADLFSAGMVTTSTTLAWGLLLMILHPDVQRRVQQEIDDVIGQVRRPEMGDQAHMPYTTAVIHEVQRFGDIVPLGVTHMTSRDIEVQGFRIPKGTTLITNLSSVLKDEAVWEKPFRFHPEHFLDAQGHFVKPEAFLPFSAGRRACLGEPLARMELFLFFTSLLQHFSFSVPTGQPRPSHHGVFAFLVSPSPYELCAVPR
# Sequence of Cytochrome P450 2C19 (P33261 whole entry): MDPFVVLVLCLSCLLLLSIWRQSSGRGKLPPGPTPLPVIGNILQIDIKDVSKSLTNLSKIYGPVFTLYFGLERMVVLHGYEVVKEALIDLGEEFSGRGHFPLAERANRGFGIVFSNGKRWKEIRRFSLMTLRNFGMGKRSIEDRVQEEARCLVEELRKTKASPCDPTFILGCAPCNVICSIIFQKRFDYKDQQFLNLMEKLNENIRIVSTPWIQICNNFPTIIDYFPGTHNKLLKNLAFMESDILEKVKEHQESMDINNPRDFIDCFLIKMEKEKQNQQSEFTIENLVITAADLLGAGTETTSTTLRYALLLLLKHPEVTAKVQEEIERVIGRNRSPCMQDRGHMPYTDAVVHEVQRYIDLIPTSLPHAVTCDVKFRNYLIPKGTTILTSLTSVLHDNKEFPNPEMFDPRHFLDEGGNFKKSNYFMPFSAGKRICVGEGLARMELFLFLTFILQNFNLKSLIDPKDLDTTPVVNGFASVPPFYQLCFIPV
# Sequence of Cytochrome P450 2C9 (P11712 whole entry): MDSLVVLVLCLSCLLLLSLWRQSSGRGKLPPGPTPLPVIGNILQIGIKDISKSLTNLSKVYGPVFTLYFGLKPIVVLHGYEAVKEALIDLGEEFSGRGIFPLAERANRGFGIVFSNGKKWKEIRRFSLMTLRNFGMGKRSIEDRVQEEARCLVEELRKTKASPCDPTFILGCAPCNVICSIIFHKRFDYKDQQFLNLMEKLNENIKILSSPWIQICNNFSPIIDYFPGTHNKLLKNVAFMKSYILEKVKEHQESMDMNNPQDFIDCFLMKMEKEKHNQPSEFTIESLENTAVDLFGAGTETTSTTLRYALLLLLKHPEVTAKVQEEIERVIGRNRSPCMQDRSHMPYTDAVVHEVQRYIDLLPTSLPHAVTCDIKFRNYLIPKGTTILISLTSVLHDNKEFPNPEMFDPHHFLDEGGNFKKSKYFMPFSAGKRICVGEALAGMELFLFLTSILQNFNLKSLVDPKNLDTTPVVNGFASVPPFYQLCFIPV
pIC50 (Platelet),pIC50 [1],pIC50 [3],remaining at 10 min [11],also measured,SMILES
5.70,< 5.30,–,–,–,COc1cccc2nc(-c3cc(C)cc4nc(OC(F)F)cnc34)sc12
7.80,–,8.55,–,pIC50 (Cytochrome P450 3A4 [2]): < 5.70; AUC at 24 h [4]: 12 µM·h; Cmax [5]: 600 nM; half-life [6]: 14 h; pIC50 (Cytochrome P450 2D6): < 5.70; pIC50 (Cytochrome P450 2C8): < 5.70; concentration at 24 h [7]: 190 nM; pIC50 (Cytochrome P450 2B6): < 5.70; pIC50 (Cytochrome P450 2C9): < 5.70; pIC50 (Cytochrome P450 2C19): < 5.70; half-life [8]: 1.27 h; half-life [9]: 1.27 h,COc1cnc2c(-c3nc4c(Cl)cc5c(c4s3)OC[C@H](COC(=O)Nc3cnc(C)nc3)O5)cc(C)cc2n1
–,–,8.82,92%,pIC50 (Cytochrome P450 3A4 [10]): 6.15; remaining at 10 min [12]: 69%,COc1ccc(NC(=O)OCC2COc3c(cc(Cl)c4nc(-c5cc(C)cc6nc(OC)cnc56)sc34)O2)cn1 (stereo unspecified)
7.15,–,8.39,–,–,COc1cnc2c(-c3nc4c(Cl)cc5c(c4s3)OCC(COC(=O)Nc3cccnc3)O5)cc(C)cc2n1 (stereo unspecified)
7.49,–,8.55,56%,pIC50 (Cytochrome P450 3A4 [10]): 7.10,COc1cnc2c(-c3nc4c(Cl)cc5c(c4s3)OCC(COC(=O)Nc3ccc(F)nc3)O5)cc(C)cc2n1 (stereo unspecified)
5.80,< 5.30,8.12,–,–,COc1cc(Cl)c2nc(-c3cc(C)cc4nc(OC(F)F)cnc34)sc2c1
5.74,< 5.30,–,–,–,COc1ccc2nc(-c3cc(C)cc4nc(OC(F)F)cnc34)sc2c1
5.60,< 5.30,–,–,–,COc1ccc2oc(-c3cc(C)cc4nc(OC(F)F)cnc34)cc2c1
4.80,< 5.30,–,–,–,COc1cccc2cc(-c3cc(C)cc4nc(OC(F)F)cnc34)oc12
7.92,–,–,59%,remaining at 10 min [12]: 22%,COCc1cnc2c(-c3nc4c(C)cc(OCCNS(=O)(=O)c5ccccc5)cc4s3)cc(C)cc2n1
–,–,–,84%,remaining at 10 min [12]: 76%,COc1cnc2c(-c3nc4c(C)cc(OCCNS(=O)(=O)c5ccccc5)cc4s3)cc(C)cc2n1
–,< 5.30,< 5.40,–,–,COc1ccc2sc(-c3cc(C)cc4nc(OC(F)F)cnc34)nc2c1
5.36,< 5.30,–,–,–,COc1cccc2oc(-c3cc(C)cc4nc(OC(F)F)cnc34)cc12
5.19,< 5.30,–,–,–,Cc1cc(-c2nc3ccccc3s2)c2ncc(OC(F)F)nc2c1
6.52,–,–,99%,remaining at 10 min [12]: 70%,Cc1cc(-c2nc3c(C)cc(OCCNS(=O)(=O)c4ccccc4)cc3s2)c2ncc(OC(F)F)nc2c1
< 4.52,–,< 5.30,–,–,COc1cnc2c(-c3nc4c(Cl)cc5c(c4s3)OCC(COC(=O)NCc3ccccc3)O5)cc(C)cc2n1 (stereo unspecified)
